The subject of the assay is 439559-082-T-J2-PDC spheroid viability. As to the kind of experiment: Anticancer human tumor 439559-082-T-J2-PDC patient-derived colon adenocarcinoma cell line growth inhibition [POLQ]. As to conditions: spheroids with HUVEC and MSC; for viability, T/C: stronger effect = lower value. The procedure:
Multicellular complex tumor spheroid response to Polymerase (POL) inhibitors (novobiocin, ART-558, RP6685) in combination with a variety of drugs and investigational agents in selected tumor cell lines
The POL inhibitors (novobiocin, ART-558, and RP6685) were evaluated both individually and in combination with standard of care and investigational anticancer small molecules within a complex spheroid model of solid tumors. . Complex spheroids include a stromal component modeled by human endothelial cells (HUVEC) and fibroblasts modeled by human mesenchymal stem cells (MSCs). The concentration ranges selected for each drug and investigational agent were based upon clinically achievable concentrations if the clinical Cmax of the agent was known.
Compounds. The drugs and investigational agents: novobiocin (NSC847541), ART-558 (NSC835418), RP-6685 (NSC848927), peposertib (NSC802822), ceralasertib (NSC780249), elimusertib (NSC800525), camonsertib (NSC841442), AZD-1390 (NSC803789), olaparib (NSC753686), talazoparib (NSC767125), rucaparib (NSC756644), sotorasib (NSC818433), MRTX-1133 (NSC836407), SN-38 (NSC673596), topotecan (NSC609699), epotoside (NSC141540), doxorubicin (NSC123127), gemcitabine (NSC613327), 5-fluorouracil (NSC19893), paclitaxel (NSC125973), vemurafenib (NSC761431), MSA-2 (NSC828583), SN-011 (NSC837082), adavosertib (NSC754352), prexasertib (NSC758257), carboplatin (NSC241240) and oxaliplatin (NSC266046), were obtained from the National Cancer Institute (NCI) Developmental Therapeutics Program Chemical Repository (21). The FDA-approved anticancer drug set is available from the Developmental Therapeutics Program at https://dtp.cancer.gov/organization/dscb/obtaining/. […] The stock solutions were prepared in dimethyl sulfoxide (DMSO, Sigma-Aldrich, St. Louis, MO, cat. D2650), except for the platinum compounds which were prepared in saline (Quality Biological, Gaithersburg, MD, cat. 114-055-101), at 800-fold the tested concentration and stored at -70 degrees C prior to their use. All drugs and investigational agents were tested over a range starting from a high concentration at or near the clinical Cmax and decreasing in half-log increments. If the clinical Cmax for an agent had not been determined, the highest concentration tested was 10 microM, except for SN-38, which was tested at a high concentration of 1 microM.
Cell Culture. All cells were maintained in an incubator at 37 degrees C and 5% CO2 with 95% humidity. The PDC lines were cultured according to standard operating procedures established by the NCI PDMR (https://pdmr.cancer.gov). Table 3 of the manuscript, lists the cell lines along with the number of the three cell types plated to form the mct-spheroids and media for tumor cell growth. After thawing, all PDC lines, except 997537-175-T-J1-PDC and 415267-285-R-J2-PDC, were cultured in Matrigel-coated flasks prepared with a working solution of 1X Ham's F-12 nutrient mix, without supplementation (Thermo Fisher Scientific, cat. 11765054), 100 U/mL penicillin-streptomycin (Thermo Fisher Scientific, cat. 15140122), and 2.5% Matrigel (Corning Inc., Corning, NY, cat. 354248) for the first three passages. The two PDC lines 997537-175-T-J1-PDC and 415267-285-R-J2-PDC were cultured on uncoated flasks. The 857933-349-R-J2-PDC line was cultured in 6C/Colon 1B media containing advanced DMEM/F-12 (Thermo Fisher Scientific, cat. 12634028), 10 mM HEPES (Thermo Fisher Scientific, cat. 15630080), 1X GlutaMAX supplement (Thermo Fisher Scientific, cat. 35050061), 0.1 mg/mL primocin (InvivoGen, San Diego, CA, cat. ant-pm-2), 10% defined fetal bovine serum, heat inactivated (HyClone Laboratories Inc., Logan, UT, cat. SH30070.03HI), 50% L-WRN conditioned media (ATCC, cat. CRL-3276), 1.25 mM N-Acetyl-L-cysteine (Sigma-Aldrich, cat. A9165), 10 mM nicotinamide (Sigma-Aldrich, cat. N0636), 1X B-27 supplement (Thermo Fisher Scientific, cat. 17504044), 1X N-2 supplement (Thermo Fisher Scientific, cat. […]

The structures appear in SMILES notation. pIC50: −log10 of the molar value. “And” between values parts separate entries of the source, which are not always exact repeats. Identical values can stand only once.
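Also: spheroids exposed to compounds for seven days before readout.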

What is called viability, T/C is the result in the treated group divided by that in the control group, in per cent. For orientation: pIC50 means −log10 of the IC50, conventionally taken in molar units. `O=C(Nc1ccc(O)c(NS(=O)(=O)c2ccc(F)cc2)c1)c1ccc(-c2ccccc2)cc1`: the viability, T/C was 91% and 95.6% and 94.9% (compound 0.0316 µM); 95.3% and 90.8% and 94.3% (compound 0.1 µM); 87.2% and 100% and 98.6% (compound 0.316 µM); 97.2% and 96.6% and 96.2% (compound 1 µM); 112% and 107% and 106% (compound 3.16 µM); 105% and 102% and 101% (compound 10 µM). Moreover, the pIC50 (curve of compound) is less than 5.00.

Consider `CC1COCCN1c1cc(C2(S(C)(=N)=O)CC2)nc(-c2ccnc3[nH]ccc23)n1` (stereo unspecified), for which the viability, T/C was 100% and 99.8% and 96.6% (compound 0.0316 µM); 98.7% and 94.7% and 99.4% (compound 0.1 µM); 95.2% and 91.3% and 98.8% (compound 0.316 µM); 96% and 88% and 91.1% (compound 1 µM); 94.9% and 97.8% and 85.5% (compound 3.16 µM); 67.7% and 75.1% and 68.6% (compound 10 µM). The pIC50 (curve of compound) is less than 5.00.

`Cn1ncnc1[C@H]1c2n[nH]c(=O)c3cc(F)cc(c23)N[C@@H]1c1ccc(F)cc1` + Cc1cccc(N(C)C(=O)C2C(O)CCN2c2nc(C)cc(C(F)(F)F)c2C#N)c1: the negative logarithm of the IC50 (pIC50) is less than 7.00 (curve of first compound, second compound 0.0316 µM); less than 7.00 (curve of first compound, second compound 0.1 µM); less than 7.00 (curve of first compound, second compound 0.316 µM); less than 7.00 (curve of first compound, second compound 1 µM); less than 7.00 (curve of first compound, second compound 3.16 µM); less than 7.00 (curve of first compound, second compound 10 µM). Besides, the viability, T/C (second compound 0.0316 µM, first compound 0.000316 µM) stood at 97.7%; the viability, T/C (second compound 0.0316 µM, first compound 0.001 µM) came to 103%; the viability, T/C (second compound 0.0316 µM, first compound 0.00316 µM) came to 97.5%; the viability, T/C (second compound 0.0316 µM, first compound 0.01 µM) was determined as 99.2%; the viability, T/C (second compound 0.0316 µM, first compound 0.0316 µM) came out at 90.8%; the viability, T/C (second compound 0.0316 µM, first compound 0.1 µM) was found to be 93.4%. The viability, T/C (second compound 0.1 µM, first compound 0.000316 µM) was found to be 108%; the viability, T/C (second compound 0.1 µM, first compound 0.001 µM) came out at 108%; the viability, T/C (second compound 0.1 µM, first compound 0.00316 µM) stood at 96%; the viability, T/C (second compound 0.1 µM, first compound 0.01 µM) is 102%; the viability, T/C (second compound 0.1 µM, first compound 0.0316 µM) came to 94.5%; the viability, T/C (second compound 0.1 µM, first compound 0.1 µM) turned out to be 86.3%. In addition, the viability, T/C reads like this: (second compound 0.316 µM, first compound 0.000316 µM) 105%; (second compound 0.316 µM, first compound 0.001 µM) 107%; (second compound 0.316 µM, first compound 0.00316 µM) 99.6%; (second compound 0.316 µM, first compound 0.01 µM) 99.5%; (second compound 0.316 µM, first compound 0.0316 µM) 92.7%; (second compound 0.316 µM, first compound 0.1 µM) 93.4%. Moreover, the viability, T/C (second compound 1 µM, first compound 0.000316 µM) was 110%; the viability, T/C (second compound 1 µM, first compound 0.001 µM) worked out at 96.5%; the viability, T/C (second compound 1 µM, first compound 0.00316 µM) came out at 93.1%; the viability, T/C (second compound 1 µM, first compound 0.01 µM) was 92.8%; the viability, T/C (second compound 1 µM, first compound 0.0316 µM) was found to be 99.9%; the viability, T/C (second compound 1 µM, first compound 0.1 µM) is 96.8%. The viability, T/C runs as follows: (second compound 3.16 µM, first compound 0.000316 µM) 93%; (second compound 3.16 µM, first compound 0.001 µM) 103%; (second compound 3.16 µM, first compound 0.00316 µM) 103%; (second compound 3.16 µM, first compound 0.01 µM) 91.9%; (second compound 3.16 µM, first compound 0.0316 µM) 101%; (second compound 3.16 µM, first compound 0.1 µM) 87.5%. Further, the viability, T/C runs as follows: (second compound 10 µM, first compound 0.000316 µM) 95.7%; (second compound 10 µM, first compound 0.001 µM) 98.1%; (second compound 10 µM, first compound 0.00316 µM) 95.4%; (second compound 10 µM, first compound 0.01 µM) 86.2%; (second compound 10 µM, first compound 0.0316 µM) 91.5%; (second compound 10 µM, first compound 0.1 µM) 85.2%.

For the origin of these results see PubChem BioAssay AID1963841 (Molecular Pharmacology Branch, DTP, NCI, 2024).
